Data taken from US20250034127A1, “AUTOPHAGY INDUCING COMPOUNDS AND USES THEREOF, IN PARTICULAR FOR DISEASES OF THE CNS” (Samsara Therapeutics Inc., priority 2021, published 2025).
Like-named read-outs stand apart in the source and are kept apart here.

Tests used:
[1] = system: primary culture of dopaminergic Tyrosine hydroxylase (TH)-positive neurons; assay: Cellular model of Parkinson's disease (MPTP/MPP+ injury); type: cell-based, rat; settings: for decrease in α-syn area per dopaminergic TH positive neuron / increase in the length of the neurite network of dopaminergic TH positive neurons / increase in the number of dopaminergic TH positive neurons: compared to MPP+ injury alone
Excerpt: This model (run by Neuro-Sys SAS, France) is based on a primary culture of dopaminergic Tyrosine hydroxylase (TH)-positive neurons injured with the dopaminergic neurons-specific toxin (DA-toxin) 1-methyl-4-phenyl-1,2,3,6 tetrahydropyridine (MPTP, a prodrug of MPP^+) (Dauer and Przedborski, 2003). Any substances reducing DA-toxin neurotoxicity may be useful as a new therapeutic agent for the treatment or prevention of PD.
Primary culture of mesencephalic neurons: Rat dopaminergic neurons were cultured as described by Visanji et al., 2008 and Callizot et al., 2019. Briefly, pregnant female rat (Wistar) of 15 days of gestation were killed using a deep anesthesia with CO2 chamber and a cervical dislocation. The midbrains obtained from 15-day-old rat embryos (Janvier, France) were dissected under a microscope. The embryonic midbrains will be removed and placed in ice-cold medium of Leibovitz (L15) containing 2% of Penicillin-Streptomycin (PS) and 1% of bovine serum albumin (BSA). The ventral portion of the mesencephalic flexure, a region of the developing brain rich in dopaminergic neurons, was used for the cell preparations.
The midbrains were dissociated by trypsinisation for 20 min at 37° C. (solution at a final concentration of 0.05% trypsin and 0.02% EDTA). The reaction was stopped by the addition of Dulbecco's modified Eagle's medium (DMEM) containing DNAase I grade II (0.5 mg/mL) and 10% of foetal calf serum (FCS). Cells were then mechanically dissociated by 3 passages through a 10 ml pipette. Cells were then centrifuged at 180×g for 10 min at +4° C. on a layer of BSA (3.5%) in L15 medium. The supernatant was discarded, and the cell pellets re-suspended in a defined culture medium consisting of Neurobasal supplemented with B27 (2%), L-glutamine (2 mM) and 2% of PS solution and 10 ng/mL of Brain-derived neurotrophic factor (BDNF) and 1 ng/ml of Glial-Derived Neurotrophic Factor (GDNF). Viable cells were counted in a Neubauer cytometer using the trypan blue exclusion test. The cells were seeded at a density of 40,000 cells/well in 96 well-plates (pre-coated with poly-L-lysine) and maintained in a humidified incubator at 37° C. in 5% CO2/95% air atmosphere. Half of the medium was changed every 2 days with fresh medium. The wells of first and last lines and columns […] (to avoid any edge effect) and were be filled with sterile water.
• i) Pre-incubation. On day 6 of culture, the test compounds were dissolved in PBS or DMSO and incubated for 1 hour before the MPTP exposure. • ii) Injury. One hour after the application of test compound, MPTP was added to a final concentration of 4 μM, diluted in control medium still in presence of compounds/inhibitors for 48 h. Test compounds were tested on one culture in 96-well plate (n=6 culture wells per condition).
Immunostaining: TH and α-Synuclein. 48 Hours after intoxication, the cell culture supernatant was removed, and the cells were fixed by a solution of 4% paraformaldehyde in PBS, pH=7.3 for 20 min at room temperature. The cells were washed twice in PBS, and then permeabilized. Non-specific sites were blocked with a solution of PBS containing 0.1% of saponin and 1% FCS for 15 min at room temperature. The cultures were incubated with: (a) monoclonal anti-Tyrosine Hydroxylase (TH) antibody produced in mouse at dilution of 1/10000 in PBS containing 1% FCS, 0.1% saponin, for 2 hours at room temperature, and (b) polyclonal anti-alpha synuclein (α-synuclein) antibody produced in rabbit at dilution of 1/200 in PBS containing 1% FCS, 0.1% saponin, for 2 h at room temperature.
Automatic computer analysis. For each condition, 20 pictures (representing the whole well area) were automatically taken using ImageXpress® (Molecular Devices) at 10× magnification (20 pictures, for TH and α-synuclein into TH neurons) using the same acquisition parameters. From images, analyses was directly and automatically performed by MetaXpress® (Molecular Devices). […]

[2] = system: primary spinal cord lower motor neurons (MNs) from SOD1 G93A Tg rats; assay: Cellular model of Amyotrophic Lateral Sclerosis (glutamate injury); type: cell-based, rat
Protocol: Compounds 157 (particularly) preferred), 185 and 196 were selected example compounds if this invention to evaluate in this model. This model (run by Neuro-Sys SAS, France) evaluates the protective effects of test compounds on primary spinal cord lower motor neurons (MNs) from SOD1 G93A Tg rats, after a glutamate injury. The MNs are pre-treated with the test compounds for 1 hour prior to exposure to glutamate, and readouts are measured 24 hours later. This model functions as an in vitro model of Amyotrophic Lateral Sclerosis. […] Any substances which can attenuate one or more of these effects can be considered to have protective effects in the model and may be useful as a new therapeutic agent for the treatment or prevention of ALS.
Genotyping of SOD1 Tg embryos: Pregnant female rat SODIG93A (Sprague Dawley, Taconic), of 14 days of gestation were obtained fromTaconic Bioscience. On the day of the dissection (from pregnant females at 14 days of gestation), a piece of each embryo brain (˜3 mm) was placed in a 2 mL tube free DNase with a new scalpel. The DNA was extracted with the SYBR Green Extract-N-Amp tissue PCR kit (Sigma Aldrich). Briefly, 120 μL of extraction solution was put on each piece of embryo heads. Then, they were incubated for 10 min at room temperature. At the end of this incubation period, the heads were incubated for 5 min at 95° C. Immediately after this last incubation, 100 μL of neutralizing solution was added; each DNA extract was diluted at 1/40 and stored at +4° C. until use. SOD1G93A gene was determined using genomic fragment with human SOD1 primers (5′-[…]-3′ (SEQ ID NO: 1); 5′-[…]-3′ (SEQ ID NO: 2)). The SOD1 primers were diluted at 3 μM in sterile ultrapure water. Briefly, a mix for PCR was prepared with ultrapure water (4 μL per sample), primer at 3 μM (2 μL per sample) and Master Mix (10 μL per sample). In a PCR 96 wells plate, 16 μL of PCR mix was added in each well. 4 μL of each diluted DNA was added according to a plan deposit. The RT-PCR was ran using the CFX96 Biorad RT-PCR system, using the following program: Initial denaturation (95° C., 20 sec)/45 cycles (95° C., 10 sec; 65° C., 10 sec; 72° C., 30 sec)/Melt curve (95° C., 15 sec; 64° C., 1 min; 90° C., 30 sec; 60° C. 15 sec). The amplification plots and melt curves were analyzed with the Biorad software. The results for each sample were compared to negative control (ultrapure water) and to the positive control (DNA from Tg embryos).
Rat spinal cord motor neurons (MNs) were be cultured as described by Wang et al. 2013 and Boussicault et al., 2020. Briefly, pregnant female rats of 14 days gestation (Sprague Dawley; Taconic) were killed using a deep anesthesia with CO2 chamber and a cervical dislocation. Then, fetuses were removed from the uterus and immediately placed in ice-cold L15 Leibovitz medium with a 2% penicillin (10,000 U/ml) and streptomycin (10 mg/ml) solution (PS) and 1% bovine serum albumin (BSA).
Spinal cords were treated for 20 min at 37° C. with a trypsin-EDTA solution at a final concentration of 0.05% trypsin and 0.02% EDTA. The dissociation was stopped by addition of Dulbecco's modified Eagle's medium (DMEM) with 4.5 g/liter of glucose, containing DNAse I grade II (final concentration 0.5 mg/mL) and 10% fetal calf serum (FCS). Cells were mechanically dissociated by three forced passages through the tip of a 10-ml pipette. Cells were then centrifuged at 515×g for 10 min at 4° C. The supernatant was discarded, and the pellet was resuspended in a defined culture medium consisting of Neurobasal medium with a 2% solution of B27 supplement, 2 mmol/liter of L-glutamine, 2% of PS solution, and 10 ng/ml of brain-derived neurotrophic factor (BDNF). Viable cells were counted in a Neubauer cytometer, using the trypan blue exclusion test. The cells were seeded at a density of 20,000 per well in 96-well plates precoated with poly-L-lysine and will be cultured at 37° C. in an air (95%)—CO2 (5%) incubator. […]

[3] = Bioavailability / brain and plasma pharmacokinetics after oral dosing; type: in vivo; settings: CD1 mice; for half-life / bioavailability: mouse
Excerpt: The compounds according to the invention have good properties for oral dosing and readily cross the blood brain barrier.

[4] = brain, oral dose of 30 mg/kg, read-out: half-life in the brain (converted)
[5] = plasma, oral, 30 mg/kg, read-out: half-life in plasma (converted)

SMILES	effects in the in vitro model of PD based on MPP+ injury [1]	decrease in α-syn area per dopaminergic TH positive neuron ([1]; 1 μM)	increase in the length of the neurite network of dopaminergic TH positive neurons ([1]; 1 μM)	increase in the number of dopaminergic TH positive neurons ([1]; 1 μM)	effects in the in vitro model of ALS [2]	increase in neurite network length ([2]; 0.1 μM, 0.5 μM and 1 μM, compared to glutamate injury alone)	abnormal TDP43 accumulation in the cytoplasm resulting from glutamate injury ([2]; 0.1 μM, 0.5 µM, 1 μM and 10 μM)	maximum concentration in brain plasma ([3]; oral dose of 30 mg/kg)	time of maximum concentration in brain plasma ([3]; oral dose of 30 mg/kg)	half-life [3, 4]	bioavailability ([3]; plasma, 30 mg/kg, oral)	half-life [3, 5]	decrease in α-syn area per dopaminergic TH positive neuron ([1]; 500 nM, 1 μM and 10 μM)	increase in the length of the neurite network of dopaminergic TH positive neurons ([1]; 500 nM, 1 μM and 10 μM)	increase in the number of dopaminergic TH positive neurons ([1]; 500 nM, 1 μM and 10 μM)	abnormal cytoplasmic TDP-43 accumulation resulting from glutamate injury ([2]; 0.1 μM, 0.5 µM and 1 μM)
C[C@H]1CN(C(=O)c2csc(-c3cnn(-c4ccccc4)c3)n2)CCN1 [Compound 157, (3S)-3-methyl-1-[2-(1-phenyl-1H-pyrazol-4-yl)-1,3-thiazole-4-carbonyl]piperazine]	positive effects	21%	35%	27%	positive effects	> 20%	fully abolished	2153 ng/mL	1.5 h	1.8 h	81%	1.8 h				
CCN1CCC(NC(=O)c2csc(-c3cnn(-c4ccccc4)c3)n2)CC1 [Compound 185, N-(1-ethylpiperidin-4-yl)-2-(1-phenyl-1H-pyrazol-4-yl)-1,3-thiazole-4-carboxamide]	positive effects				positive effects			3457 ng/mL	1 h	13 h	100%	18 h	> 14%	> 27%	> 22%	fully abolished
